In patent US20140141456A1, “PAPP-A2 AS A MARKER FOR MONITORING, PREDICTING AND DIAGNOSING PREECLAMPSIA” (Ansh Labs, LLC, priority 2012, published 2014):

Legend:
PAPP-A2 = PAPP-A2 (Homo sapiens, UniProt Q9BXP8)
Experimental: Medium from 293T cells transfected with empty vector (lane 1), cDNA encoding PAPP-A2 with an inactivating E734Q mutation (pPA2-KO) (lane 2), or cDNA encoding wild-type PAPP-A2 (pPA2) (lanes 3-6) was incubated with C-terminally c-myc tagged rIGFBP-5. Proteolytic activity was assessed by Western blotting using anti-c-myc. ‘i’ denotes intact rIGFBP-5; ‘c’ denotes the detectable C-terminal c-myc tagged cleavage product.
Briefly, recombinant IGFBP-5 as contained in 5 microL cell culture medium was incubated with culture supernatants (10 microL) from cells transfected with pPA2, pPA2-KO, or empty expression vectors (see U.S. Pat. No. 7,083,940). Phosphate buffered saline was added to a final volume of 50 microL. After incubation at 37 degrees Celsius for 12 hours, 15 microL of the reaction mixture was separated by reducing 16% SDS-PAGE, blotted onto a PVDF membrane, and the C-terminal cleavage product was detected with monoclonal anti-c-myc (clone 9E19, ATTC) using peroxidase-conjugated secondary antibodies (P260, DAKO), and enhanced chemiluminescence (ECL, Amersham).

IGFBP-3 = experiment: Activity of PAPP-A2 against IGFBPs, ligand blotting using radiolabeled IGF-II; format: biochemical; details: medium from 293T cells transfected with pPA2
Experimental: (§1) Ligand blotting (Conover et al., 1993, J Clin Invest 91, 1129-37) with radiolabeled IGF-II (Bachem) was used to assay for activity against IGFBP-1 (from HepG2 conditioned medium), rIGFBP-2 (GroPep), rIGFBP-3 (gift of D. Powell), rIGFBP-4 (Austral), rIGFBP-5 (gift of D. Andress), and rIGFBP-6 (Austral). […] IGFBP-3 was partially degraded (FIG. 10). This cleavage was independent of the presence of IGF. Experiments were carried out with media from cells transfected with pPA2 or empty vector.
(§2) Medium from 293T cells transfected with empty vector (−), or cDNA encoding PAPP-A2 (pPA2) (+) was incubated with each of the six IGFBPs (BP1-BP6), and the activity was assessed by ligand blotting using radiolabeled IGF-II.

IGFBP-5 = experiment: as above; format: biochemical; details: medium from 293T cells transfected with pPA2
Experimental: as §1, §2

rIGFBP-5 = experiment: Proteolytic activity of PAPP-A2 against IGFBP-5, Western blotting using anti-c-myc; format: biochemical, human; details: absence of inhibitors; medium from 293T cells transfected with pPA2

Chain of PAPP-A2 (Q9BXP8 234-1791 limits assumed): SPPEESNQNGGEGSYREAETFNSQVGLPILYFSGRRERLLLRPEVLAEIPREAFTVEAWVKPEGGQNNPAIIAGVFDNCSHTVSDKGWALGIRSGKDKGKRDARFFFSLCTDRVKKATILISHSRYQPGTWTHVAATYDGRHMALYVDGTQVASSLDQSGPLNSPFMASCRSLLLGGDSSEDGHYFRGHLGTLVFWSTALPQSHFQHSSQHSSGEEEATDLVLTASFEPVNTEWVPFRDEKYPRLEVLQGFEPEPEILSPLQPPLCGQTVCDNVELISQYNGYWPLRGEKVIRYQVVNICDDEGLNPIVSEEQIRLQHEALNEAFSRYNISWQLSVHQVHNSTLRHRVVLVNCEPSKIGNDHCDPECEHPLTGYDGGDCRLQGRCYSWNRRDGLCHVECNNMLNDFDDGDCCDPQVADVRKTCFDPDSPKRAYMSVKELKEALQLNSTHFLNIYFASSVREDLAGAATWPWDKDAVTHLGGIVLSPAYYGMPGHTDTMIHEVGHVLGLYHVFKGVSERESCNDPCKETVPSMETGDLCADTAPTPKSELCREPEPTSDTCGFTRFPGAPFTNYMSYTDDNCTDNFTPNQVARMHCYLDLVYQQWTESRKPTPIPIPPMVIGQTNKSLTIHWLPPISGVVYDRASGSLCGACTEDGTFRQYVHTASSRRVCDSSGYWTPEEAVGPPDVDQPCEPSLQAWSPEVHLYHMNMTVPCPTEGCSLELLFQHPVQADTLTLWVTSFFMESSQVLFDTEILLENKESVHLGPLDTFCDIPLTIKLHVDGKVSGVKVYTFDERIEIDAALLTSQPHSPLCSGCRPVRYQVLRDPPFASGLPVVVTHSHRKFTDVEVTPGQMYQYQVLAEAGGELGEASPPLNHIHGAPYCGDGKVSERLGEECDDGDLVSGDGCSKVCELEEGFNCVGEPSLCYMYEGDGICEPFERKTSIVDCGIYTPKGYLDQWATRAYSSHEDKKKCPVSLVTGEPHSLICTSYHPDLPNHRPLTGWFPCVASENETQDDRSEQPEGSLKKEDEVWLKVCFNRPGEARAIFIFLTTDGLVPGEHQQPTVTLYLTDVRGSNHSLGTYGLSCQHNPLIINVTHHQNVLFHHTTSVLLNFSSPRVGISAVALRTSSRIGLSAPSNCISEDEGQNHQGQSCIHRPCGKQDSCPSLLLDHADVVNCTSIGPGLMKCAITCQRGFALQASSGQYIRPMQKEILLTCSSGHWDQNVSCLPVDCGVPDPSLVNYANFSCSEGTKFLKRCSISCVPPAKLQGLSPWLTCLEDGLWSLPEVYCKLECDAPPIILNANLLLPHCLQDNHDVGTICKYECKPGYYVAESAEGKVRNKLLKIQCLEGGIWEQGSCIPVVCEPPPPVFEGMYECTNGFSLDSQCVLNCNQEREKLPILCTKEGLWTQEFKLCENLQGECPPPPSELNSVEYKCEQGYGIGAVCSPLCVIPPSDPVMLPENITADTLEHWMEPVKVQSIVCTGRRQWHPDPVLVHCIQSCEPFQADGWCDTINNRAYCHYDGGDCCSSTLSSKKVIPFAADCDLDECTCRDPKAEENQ

PAPP-A2 activity (degradation of rIGFBP-5) (PAPP-A2)	Compound	Degradation of IGFBP-3 (IGFBP-3)	Cleavage of IGFBP-5 (IGFBP-5)	Degradation of rIGFBP-5 (rIGFBP-5)
abolished	c1cnc2c(c1)ccc1cccnc12 [phenanthroline]			
	PAPP-A2: recombinant wild-type PAPP-A2 metalloproteinase in medium from 293T cells transfected with cDNA (pPA2)	Partial degradation	Complete cleavage	degraded all rIGFBP-5
not affected	O=c1oc(Cl)c(Cl)c2ccccc12 [3,4-DCI]			
